Results taken from paper PMC11219871, “Epigenetic-based differentiation therapy for Acute Myeloid Leukemia” (Nature Communications, 2024).

What was measured:
BRPF3 = target: T1, BRPF3 (Homo sapiens, UniProt Q9ULD4); test: Epigenetic panel (BPS Bioscience); assay type: binding
T1 construct: purchased BPS Bioscience; Eurofins (HDAC4, 5, 7-11)
Description: (§1) The selectivity of CM-444 and CM-1758 against other epigenetic targets, including histone demethylase (JMJD2A, JMJD2B, JMJD2C, JMJD2D, JMJD2E, JMJD3, JMJD1A, LSD1, Jarid1A, Jarid1B, Jarid1C, FBXL10, FBXL11, JHDM1D, JMJD1B, PHF8, LSD2 and UTX); histone acetyltransferases (GCN5, P300); histone methyltransferases (G9a, GLP, MLL1, SET7/9, SUV39H1, SUV39H2, PRMT1, PRMT3, PRMT4, PRMT5, PRMT6, PRMT8, PRMT9, NSD1, NSD2, EZH1, EZH2, SETDB1, SETD2, SET8, SUV4-20H1, SMYD2, SMYD3, DOT1L, EZH2 (A677G), EZH2 (A677G), EZH2 (A738T), EZH2 (Y641S), EZH2 (P132S), EZH2 (Y641C), EZH2 (Y641F), EZH2 (Y641H), EZH2 (Y641N)); bromodomains (ATAD2B, ATAD2A, BRD1, BRD9, BPTF/FALZ, CeCR2, BRPF3, BRD3 (BD1 + BD2), BAZ2B, WDR9, TAF1 (BD2), TAF1L (BD2), TAF1L (BD1 + BD2), BRD2 (BD1), BRD2 (BD2), BRD2 (BD1 + BD2), BRD3 (BD1), BRD3 (BD2), BRD4 (BD1), BRD4 (BD2), BRD4 (BD1 + BD2), BRDT (BD1), BRDT (BD1 + BD2), CREBBP, SMARCA2A, SMARCA4/BRG1); DNA methyltranferases (DNMT1, DNMT3A/3L and DNMT3B/3L), and sirtuin histone deacetylases (SIRT1, SIRT2, SIRT3, SIRT5 and SIRT6), were determined by BPS Bioscience (http://www.bpsbioscience.com/index.ph). Binding experiments were performed in duplicate at a concentration of 10 μM.

SMARCA4/BRG1 = target: T2, SMARCA4/BRG1 (Homo sapiens, UniProt P51532); test: Epigenetic panel (BPS Bioscience); assay type: binding
T2 construct: purchased BPS Bioscience; Eurofins (HDAC4, 5, 7-11)
Description: as §1

BRD3 (BD1+BD2) = target: T3, BRD3 (BD1+BD2) (Homo sapiens, UniProt Q15059); test: Epigenetic panel (BPS Bioscience); assay type: binding
T3 construct: purchased BPS Bioscience; Eurofins (HDAC4, 5, 7-11)
Description: as §1

TAF1 (BD2) = target: T4, TAF1 (BD2) (Homo sapiens, UniProt P21675); test: Epigenetic panel (BPS Bioscience); assay type: binding
T4 construct: purchased BPS Bioscience; Eurofins (HDAC4, 5, 7-11)
Description: as §1

BRD4 (BD1) = target: T5, BRD4 (BD1) (Homo sapiens, UniProt O60885); test: Epigenetic panel (BPS Bioscience); assay type: binding
T5 construct: purchased BPS Bioscience; Eurofins (HDAC4, 5, 7-11)
Description: as §1

HDAC8 = target: T6, HDAC8 (Homo sapiens, UniProt Q9BY41); test: HDAC assay (Eurofins); assay type: biochemical
T6 construct: purchased Eurofins (contracted assay service)
T6 sequence (Q9BY41 1-377): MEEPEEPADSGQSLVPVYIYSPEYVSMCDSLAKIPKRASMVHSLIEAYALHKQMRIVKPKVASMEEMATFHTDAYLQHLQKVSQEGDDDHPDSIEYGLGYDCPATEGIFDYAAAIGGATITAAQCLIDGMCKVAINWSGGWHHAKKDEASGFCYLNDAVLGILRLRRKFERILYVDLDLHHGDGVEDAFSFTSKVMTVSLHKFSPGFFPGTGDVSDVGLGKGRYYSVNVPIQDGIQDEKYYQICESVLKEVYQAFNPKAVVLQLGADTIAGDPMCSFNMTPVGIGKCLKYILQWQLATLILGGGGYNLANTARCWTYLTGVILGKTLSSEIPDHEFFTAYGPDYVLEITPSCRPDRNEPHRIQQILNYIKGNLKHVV

HDAC11 = target: T7, HDAC11 (Homo sapiens, UniProt Q96DB2); test: Continuous and direct activity assay for HDAC11; assay type: biochemical; conditions: for inhibition at 10 µM: source data of Fig. 1B; for IC50: Continuous Activity Assay for HDAC11
T7 sequence (Q96DB2 1-347): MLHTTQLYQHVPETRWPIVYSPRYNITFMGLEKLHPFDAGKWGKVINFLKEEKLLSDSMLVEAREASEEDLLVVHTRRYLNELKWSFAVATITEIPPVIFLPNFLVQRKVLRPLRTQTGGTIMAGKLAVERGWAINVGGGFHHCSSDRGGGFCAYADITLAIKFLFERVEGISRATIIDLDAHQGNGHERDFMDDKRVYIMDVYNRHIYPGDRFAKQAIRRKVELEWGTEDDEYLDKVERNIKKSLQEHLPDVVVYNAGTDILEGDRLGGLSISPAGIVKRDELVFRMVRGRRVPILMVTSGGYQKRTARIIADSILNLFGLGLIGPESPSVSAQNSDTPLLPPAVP

HDAC9 = target: T8, HDAC9 (Homo sapiens, UniProt Q9UKV0); test: HDAC assay (Eurofins); assay type: biochemical
T8 construct: purchased Eurofins (contracted assay service)

CACO-2 permeability = assay type: in vitro ADME; conditions: human; for efflux ratio at 120 min, 2 µM: Caco-2, pH 7.4; for Papp A→B at 120 min, 2 µM: Caco-2, pH 7.4, A to B
Method: This study was conducted at Wuxi (http://www.wuxi.com/). Caco-2 cells (ATCC) were seeded onto polyethylene membranes in 96-well BD insert plates at 1 × 10^5 cells/cm^2, and the medium was changed every 4 days until the 21st to 28th day for confluent cell monolayer formation. Test compounds were diluted with transport buffer (HBSS with 10 mM HEPES at pH 7.4 ± 0.05) to a concentration of 2 µM (final DMSO concentration adjusted to <1%) and tested bi-directionally to investigate P-glycoprotein-mediated efflux in duplicate. Controls: digoxin (10 μM, bi-directionally), nanodolol and metoprolol (2 μM, apical, A, to basolateral, B). The permeation was assessed over a 120-minute incubation at 37 °C ± 1 °C and 5% CO2 at saturated humidity without shaking. Samples were mixed with acetonitrile containing internal standard and centrifuged at 1520 g for 10 min. Then, 100-μL aliquots of supernatant solutions were diluted with 100 μL of pure water. Concentrations of test and control compounds in starting solution, donor solution, and receiver solution were quantified by LC-MS/MS using a peak area ratio of analyte to internal standard. Permeation of lucifer yellow through the monolayer was measured to evaluate the cellular integrity. The results are the average of two biological replicates.

T8 sequence (Q9UKV0 whole entry): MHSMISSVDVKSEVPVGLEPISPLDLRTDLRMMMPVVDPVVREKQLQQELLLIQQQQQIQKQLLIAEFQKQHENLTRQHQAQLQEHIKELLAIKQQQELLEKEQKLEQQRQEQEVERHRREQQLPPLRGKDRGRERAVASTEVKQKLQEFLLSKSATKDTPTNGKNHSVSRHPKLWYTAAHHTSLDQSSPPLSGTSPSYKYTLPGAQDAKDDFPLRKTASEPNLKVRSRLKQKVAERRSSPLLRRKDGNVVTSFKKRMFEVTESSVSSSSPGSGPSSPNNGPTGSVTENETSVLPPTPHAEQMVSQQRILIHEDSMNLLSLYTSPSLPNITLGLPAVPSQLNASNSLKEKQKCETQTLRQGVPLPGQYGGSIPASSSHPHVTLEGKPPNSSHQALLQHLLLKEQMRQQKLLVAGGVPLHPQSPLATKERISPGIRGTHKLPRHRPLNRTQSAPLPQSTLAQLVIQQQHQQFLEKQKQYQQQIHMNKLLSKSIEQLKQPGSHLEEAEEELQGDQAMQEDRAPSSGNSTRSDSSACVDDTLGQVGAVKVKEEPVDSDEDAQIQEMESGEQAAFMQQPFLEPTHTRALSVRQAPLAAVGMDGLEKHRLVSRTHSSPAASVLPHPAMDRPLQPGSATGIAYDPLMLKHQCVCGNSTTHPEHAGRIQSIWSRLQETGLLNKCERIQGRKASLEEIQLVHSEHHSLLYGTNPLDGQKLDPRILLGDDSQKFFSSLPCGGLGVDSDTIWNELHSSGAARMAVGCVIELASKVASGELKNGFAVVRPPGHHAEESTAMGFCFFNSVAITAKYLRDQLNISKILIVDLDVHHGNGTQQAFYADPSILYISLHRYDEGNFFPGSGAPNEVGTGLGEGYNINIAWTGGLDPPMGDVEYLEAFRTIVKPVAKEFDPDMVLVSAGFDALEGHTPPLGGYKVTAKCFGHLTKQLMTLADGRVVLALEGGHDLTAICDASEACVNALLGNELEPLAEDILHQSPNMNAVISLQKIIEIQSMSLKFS
T3 sequence (Q15059 29-419 limits assumed): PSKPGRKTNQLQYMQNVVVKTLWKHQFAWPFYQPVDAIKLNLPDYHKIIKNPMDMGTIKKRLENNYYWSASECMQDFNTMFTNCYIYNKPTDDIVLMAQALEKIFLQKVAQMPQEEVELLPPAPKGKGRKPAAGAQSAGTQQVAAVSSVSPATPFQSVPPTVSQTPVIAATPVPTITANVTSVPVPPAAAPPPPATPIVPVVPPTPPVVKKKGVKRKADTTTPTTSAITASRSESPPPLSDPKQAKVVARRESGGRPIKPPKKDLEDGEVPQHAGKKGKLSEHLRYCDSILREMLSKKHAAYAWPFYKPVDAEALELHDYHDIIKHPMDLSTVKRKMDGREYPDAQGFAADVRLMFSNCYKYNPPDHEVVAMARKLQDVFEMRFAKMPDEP
T4 sequence (P21675 1522-1656 limits assumed): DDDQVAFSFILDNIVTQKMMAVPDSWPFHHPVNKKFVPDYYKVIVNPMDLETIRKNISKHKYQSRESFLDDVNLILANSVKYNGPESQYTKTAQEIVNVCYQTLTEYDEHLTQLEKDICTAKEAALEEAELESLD
T2 sequence (P51532 whole entry): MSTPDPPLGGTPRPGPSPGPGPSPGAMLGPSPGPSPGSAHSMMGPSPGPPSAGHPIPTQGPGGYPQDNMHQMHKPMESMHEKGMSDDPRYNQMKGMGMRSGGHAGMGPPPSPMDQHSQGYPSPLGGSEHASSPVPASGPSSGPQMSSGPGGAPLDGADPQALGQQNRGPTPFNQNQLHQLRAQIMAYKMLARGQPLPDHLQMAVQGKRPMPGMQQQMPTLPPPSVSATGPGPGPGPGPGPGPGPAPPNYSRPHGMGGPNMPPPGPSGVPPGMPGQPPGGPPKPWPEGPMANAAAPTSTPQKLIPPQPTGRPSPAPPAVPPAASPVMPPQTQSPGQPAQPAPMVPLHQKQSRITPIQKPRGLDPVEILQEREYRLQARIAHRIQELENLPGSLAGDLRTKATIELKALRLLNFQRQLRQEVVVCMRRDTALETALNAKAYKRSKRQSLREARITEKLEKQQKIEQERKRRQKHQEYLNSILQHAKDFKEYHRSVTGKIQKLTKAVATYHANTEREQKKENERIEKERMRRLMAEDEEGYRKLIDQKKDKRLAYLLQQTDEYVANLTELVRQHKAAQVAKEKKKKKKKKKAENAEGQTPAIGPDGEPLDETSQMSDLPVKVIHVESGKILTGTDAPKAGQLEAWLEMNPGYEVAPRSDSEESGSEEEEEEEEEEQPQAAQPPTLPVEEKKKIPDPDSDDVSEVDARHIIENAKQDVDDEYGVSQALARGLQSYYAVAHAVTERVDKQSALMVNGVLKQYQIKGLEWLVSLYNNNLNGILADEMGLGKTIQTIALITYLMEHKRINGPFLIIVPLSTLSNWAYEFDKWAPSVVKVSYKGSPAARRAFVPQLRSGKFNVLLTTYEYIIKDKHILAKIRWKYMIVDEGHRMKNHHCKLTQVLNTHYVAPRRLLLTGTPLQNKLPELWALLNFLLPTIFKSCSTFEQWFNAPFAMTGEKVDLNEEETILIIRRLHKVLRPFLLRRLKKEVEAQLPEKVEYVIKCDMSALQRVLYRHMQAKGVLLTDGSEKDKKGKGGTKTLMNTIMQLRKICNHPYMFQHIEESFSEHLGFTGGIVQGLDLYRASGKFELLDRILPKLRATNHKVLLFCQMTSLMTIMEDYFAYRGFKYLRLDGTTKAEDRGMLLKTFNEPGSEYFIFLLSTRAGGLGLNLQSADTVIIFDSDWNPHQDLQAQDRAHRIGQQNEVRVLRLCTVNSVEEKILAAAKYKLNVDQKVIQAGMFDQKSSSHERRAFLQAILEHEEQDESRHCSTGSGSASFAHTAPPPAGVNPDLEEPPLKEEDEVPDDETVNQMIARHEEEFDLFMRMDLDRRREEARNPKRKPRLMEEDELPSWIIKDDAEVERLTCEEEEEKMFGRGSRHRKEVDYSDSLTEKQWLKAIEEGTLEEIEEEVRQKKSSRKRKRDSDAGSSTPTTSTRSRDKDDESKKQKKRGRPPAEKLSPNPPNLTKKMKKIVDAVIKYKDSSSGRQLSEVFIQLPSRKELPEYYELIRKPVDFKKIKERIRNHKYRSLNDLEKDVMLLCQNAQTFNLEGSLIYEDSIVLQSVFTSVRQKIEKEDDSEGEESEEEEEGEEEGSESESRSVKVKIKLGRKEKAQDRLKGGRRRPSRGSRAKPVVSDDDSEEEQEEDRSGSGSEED
T1 sequence (Q9ULD4 whole entry): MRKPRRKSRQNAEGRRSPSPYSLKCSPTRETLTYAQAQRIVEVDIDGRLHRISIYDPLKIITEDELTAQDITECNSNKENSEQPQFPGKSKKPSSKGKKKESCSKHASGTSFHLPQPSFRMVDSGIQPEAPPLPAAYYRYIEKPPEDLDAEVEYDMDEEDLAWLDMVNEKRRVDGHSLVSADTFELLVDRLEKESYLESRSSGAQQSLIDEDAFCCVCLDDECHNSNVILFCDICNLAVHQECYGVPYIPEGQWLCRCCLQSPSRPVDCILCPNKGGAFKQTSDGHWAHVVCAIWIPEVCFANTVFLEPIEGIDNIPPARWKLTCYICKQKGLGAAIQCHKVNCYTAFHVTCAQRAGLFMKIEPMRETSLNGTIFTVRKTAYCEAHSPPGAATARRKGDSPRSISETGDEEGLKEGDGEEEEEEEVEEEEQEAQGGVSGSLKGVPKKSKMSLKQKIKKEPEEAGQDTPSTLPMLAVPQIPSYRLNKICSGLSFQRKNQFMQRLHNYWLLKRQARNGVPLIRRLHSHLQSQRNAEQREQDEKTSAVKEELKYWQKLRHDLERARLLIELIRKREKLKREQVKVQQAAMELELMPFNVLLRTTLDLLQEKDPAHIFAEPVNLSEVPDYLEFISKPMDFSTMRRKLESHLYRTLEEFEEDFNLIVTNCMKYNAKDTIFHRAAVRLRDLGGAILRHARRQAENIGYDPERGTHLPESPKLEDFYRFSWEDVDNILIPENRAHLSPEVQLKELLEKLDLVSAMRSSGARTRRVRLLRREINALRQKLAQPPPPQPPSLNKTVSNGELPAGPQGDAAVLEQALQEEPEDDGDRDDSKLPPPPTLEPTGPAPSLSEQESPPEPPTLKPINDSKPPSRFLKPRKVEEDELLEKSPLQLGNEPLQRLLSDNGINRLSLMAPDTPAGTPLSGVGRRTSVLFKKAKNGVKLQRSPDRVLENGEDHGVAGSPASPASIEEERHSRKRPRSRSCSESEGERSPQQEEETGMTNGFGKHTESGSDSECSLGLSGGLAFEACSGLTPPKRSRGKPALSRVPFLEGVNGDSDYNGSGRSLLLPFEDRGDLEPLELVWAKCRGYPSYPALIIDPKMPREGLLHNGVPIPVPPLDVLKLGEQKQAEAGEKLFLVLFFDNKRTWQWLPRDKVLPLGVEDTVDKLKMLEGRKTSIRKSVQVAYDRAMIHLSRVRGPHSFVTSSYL

| Structure (SMILES) | inhibition at 10 µM (BRPF3) [%] | inhibition at 10 µM (SMARCA4/BRG1) [%] | inhibition at 10 µM (BRD3 (BD1+BD2)) [%] | inhibition at 10 µM (TAF1 (BD2)) [%] | inhibition at 10 µM (BRD4 (BD1)) [%] | IC50 (HDAC8) [nM] | inhibition at 10 µM (HDAC8) [%] | inhibition at 10 µM (HDAC11) [%] | IC50 (HDAC11) [nM] | IC50 (HDAC9) [nM] | inhibition at 10 µM (HDAC9) [%] | efflux ratio at 120 min, 2 µM (CACO-2 permeability) | Papp A→B at 120 min, 2 µM (CACO-2 permeability) [×10⁻⁶ cm/s] |
| --- | --- | --- | --- | --- | --- | --- | --- | --- | --- | --- | --- | --- | --- |
| COc1cc2nc(-c3ccc(C)o3)cc(NCC3CCN(c4ncc(C(=O)NO)cn4)CC3)c2cc1OC [CM-444, 2-[4-[[[6,7-dimethoxy-2-(5-methyl-2-furyl)-4-quinolyl]amino]methyl]-1-piperidyl]pyrimidine-5-carbohydroxamic acid] | 0 | 0 | 43 | 0 | 6 | 83 | 100 | 90 | 568 | 90 | 98 | > 1050 | < 0.01 |
| COc1cc2nc(-c3cc(C)oc3C)cc(NCC3CCN(c4ncc(C(=O)NO)cn4)CC3)c2cc1OC [CM-1758, 2-[4-[[[2-(2,5-dimethyl-3-furyl)-6,7-dimethoxy-4-quinolyl]amino]methyl] -1-piperidyl]pyrimidine-5-carbohydroxamic acid] | 40 | 18 | 29 | 0 | 0 | 200 | 100 | 90 | 600 | 92 | 97 | > 1050 | < 0.01 |
